≈ marks a conversion by molar mass, not a printed value. Read-outs that look alike come from different tables or passages of the source.

The assay relates to ADP-induced aggregation of human platelets. The assay is classed as cell-based. The settings on record: human platelet rich plasma, vs ADP, read-out: Inhibition of Human Platelet Aggregation IC50 Vs ADP.

Experimental: IN VITRO INHIBITION OF HUMAN PLATELET AGGREGATION
The human volunteer donor's arm is cleansed with 70% ethyl alcohol. A sterile 20 ml syringe and needle are used to withdraw 20 ml of blood. The blood is immediately added to a test tube containing 3.8% sodium citrate to prevent clotting (1 part citrate to 9 parts blood).
Platelet rich plasma (PRP) was separated by centrifugation for 10 minutes at 1000 rpm (140 xg) from citrated (3.8%) human blood. All glassware used for preparation of PRP is silicon treated. ADP in final concentration of 0.5 meg/mL or 0.05 mL of a collagen suspension prepared according to the method described by Evans, G., et al., J. Exp. Med., 1968, 128, 877-894 was used to induce aggregation. The various compounds tested were dissolved in dimethylsulfoxide (DMSO) so that 5 mol added to the platelet rich plasma would yield the desired test concentration. Vehicle control trials were done and compared with aggregation induced in platelet rich plasma containing various concentrations of the test compounds. Dose response curves were obtained and Inhibitor Concentration (IC50) values calculated.

With `COC(=O)COc1cccc(CCc2nc(-c3ccccc3)c(-c3ccccc3)[nH]2)c1` [Example 1, Methyl [3-[2-(4,5-diphenyl-1H-imidazol-2-yl)ethyl]phenoxy]-acetate], the IC50 (Formula II compounds) was determined as 2.4 µg/mL (≈ 5.82 µM).

Regarding `O=C(O)COc1cccc(CCc2nc(-c3ccccc3)c(-c3ccccc3)[nH]2)c1` [Example 2, [3-[2-(4,5-diphenyl-1H-imidazol-2-yl)ethyl]phenoxy]-acetic acid], the IC50 (Formula II compounds) was found to be 1.2 µg/mL (≈ 3.01 µM).

Turning to `COC(=O)COc1cccc(CSc2nc(-c3ccccc3)c(-c3ccccc3)[nH]2)c1` [Example 4, Methyl [3-[[(4,5-diphenyl-1H-imidazol-2-yl)thio]methyl]phenoxy]acetate], the IC50 (Formula VIII compounds) came to 0.42 µg/mL (≈ 0.976 µM).

As to `O=C(O)COc1cccc(CSc2nc(-c3ccccc3)c(-c3ccccc3)[nH]2)c1` [Example 5, [3-[[(4,5-Diphenyl-1H-imidazol-2-yl)thio]methyl]phenoxy]acetic Acid], the IC50 (Formula VIII compounds) was found to be 0.41 µg/mL (≈ 0.984 µM).

The values are drawn from patent US5011851A, “Imidazole carboxylic acids and esters and inhibition of blood platelet aggregation therewith” (Bristol-Myers Squibb Co., priority 1990, dated 1991).
